Results on 14 compounds are retold here after ChEMBL document CHEMBL4476871, “SULFAMIDE AND SULFAMATE INHIBITORS OF hHint1” (2018).

Molecules are shown by their SMILES.

Data set [1] in a line: Solubility of the compound in water. In kind it is physicochemical. The conditions noted are these: buffer.
Data set [2] addresses T1, Adenosine 5'-monophosphoramidase HINT1 (Homo sapiens, UniProt P49773). Kind of data set: Binding affinity to full-length human N-terminal His6-tagged Hint1 expressed in Escherichia coli Rosetta 2 pLysS cells by isothermal titration calorimetry. (Isothermal titration calorimetry measures the heat released or taken up as one component is titrated into another.)
Data set [3] has as its system Mus musculus. The data set can be described thus: Suppression of morphine-induced analgesic tolerance in ICR mouse model of spared nerve injury-induced neuropathic pain assessed as reduction in mechanical hypersensitivity administered intrathecally for 3 days prior to morphine challenge on day 4 by Von Frey test. It counts as functional. The conditions noted are these: central.

Data set [4] can be described thus: Aqueous solubility of the compound. It counts as physicochemical. Conditions: buffer.
The subject of data set [5] is Mus musculus. Kind of data set: Effect on spared nerve injury-induced ICR mouse model of neuropathic pain administered intrathecally for 3 days by Von Frey test. In kind it is functional. The conditions noted are these: central, 72 h.
Data set [6] in a line: Solubility of the compound in DMSO. It counts as physicochemical.
For data set [7], the system named is Mus musculus. The data set can be described thus: Suppression of morphine-induced analgesic tolerance in ICR mouse model of spared nerve injury-induced neuropathic pain assessed as reduction in mechanical hypersensitivity administered intrathecally for 3 days prior to morphine challenge on day 4 by Von Frey test relative to control. In kind it is functional.

The test system of data set [8] is Mus musculus. Kind of data set: Effect on spared nerve injury-induced ICR mouse model of neuropathic pain administered intrathecally for 3 days by Von Frey test relative to control. In kind it is functional.
Data set [9] deals with T1, Adenosine 5'-monophosphoramidase HINT1. The data set can be described thus: Inhibition of human N-terminal His6-tagged Hint1 expressed in Escherichia coli Rosetta 2 pLysS cells by fluorescence assay.

T1 sequence (P49773 whole entry): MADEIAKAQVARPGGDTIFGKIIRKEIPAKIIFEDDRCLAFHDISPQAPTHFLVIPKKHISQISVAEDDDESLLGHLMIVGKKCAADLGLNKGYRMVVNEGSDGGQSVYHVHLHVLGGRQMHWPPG

`Nc1nc2c([C@@H]3O[C@H](COS(=O)(=O)NC(=O)CCc4c[nH]c5ccccc45)[C@@H](O)[C@H]3O)scc2c(=O)[nH]1`: the solubility entry in data set [1] is on record as “Soluble”. Also, the Kd (usually the free concentration of one partner at which half of the binding sites on the other are occupied at equilibrium, for simple one-to-one binding) in data set [2] is 5.2 µM. Turning to `O=C(CCc1c[nH]c2ccccc12)NS(=O)(=O)OC[C@H]1O[C@@H](n2cnc3c2ncn2ccnc32)[C@@H](O)C1O` (stereo partly specified), the ED50 (commonly the midpoint of the dose-response relation) was 4.6 mg/kg in data set [3] and 3.6 mg/kg in [5]. Moreover, in data set [4], the solubility entry is listed as “Soluble”. For the compound `Nc1nc2c(ncn2[C@@H]2O[C@H](CNS(=O)(=O)NC(=O)CCc3c[nH]c4ccccc34)[C@@H](O)[C@H]2O)c(=O)[nH]1`, the solubility entry in data set [4] is reported as “Soluble”. Take `Nc1nc2c(ncn2[C@@H]2O[C@H](COP(=O)(O)O)[C@@H](O)[C@H]2O)c(=O)[nH]1`: in data set [2], the equilibrium dissociation constant (Kd) amounted to 67 µM. For `Nc1nc2c(ncn2[C@@H]2O[C@H](COC(=O)NCCc3c[nH]c4ccccc34)[C@@H](O)[C@H]2O)c(=O)[nH]1`, the median effective dose (ED50) was 2.6 mg/kg in data set [3] and 2.3 mg/kg in data set [5]. Moreover, the solubility entry in [6] is listed as “Soluble”. Also, the “fold change (FC)” value in data set [7] is 0.8; in data set [8], 0.7. Turning to `Nc1nc2c(ncn2[C@@H]2O[C@H](COC(=O)NCCc3c[nH]cn3)[C@@H](O)[C@H]2O)c(=O)[nH]1`, the solubility entry in data set [6] is “Soluble”. Binding in data set [2] was put at a Kd of 3.43 µM. For `Nc1ncnc2c1ncn2[C@@H]1O[C@H](CNS(=O)(=O)NC(=O)CCCC[C@@H]2SC[C@@H]3NC(=O)N[C@@H]32)[C@@H](O)[C@H]1O`, in data set [9], half-maximal inhibition (IC50) required 25.5 µM. Consider `Nc1nc2c(ncn2[C@@H]2O[C@H](COP(=O)(O)NCCc3c[nH]c4ccccc34)[C@@H](O)[C@H]2O)c(=O)[nH]1`, for which the solubility result in [4] is listed as “Soluble”. For the compound `Nc1nc2c(ncn2[C@@H]2O[C@H](CSP(=O)(O)NCCc3c[nH]c4ccccc34)[C@@H](O)[C@H]2O)c(=O)[nH]1`, in [1], the solubility result is reported as “Soluble”.

As for `Nc1nc2c(ncn2[C@@H]2O[C@H](COC(=O)NCc3ccccc3)[C@@H](O)[C@H]2O)c(=O)[nH]1`, the solubility entry in [6] was “Insoluble”. Besides, in data set [2], the Kd amounted to 8.09 µM.

`Nc1nc2c(ncn2C2OC(COS(=O)(=O)NC(=O)CCc3c[nH]c4ccccc34)C(O)C2O)c(=O)[nH]1` (single isomer, unassigned): in [4], the solubility result is listed as “Soluble”. On to `Nc1nc(N)c2ncn([C@@H]3O[C@H](COC(=O)Nc4ccccc4)[C@@H](O)[C@H]3O)c2n1`, for which the solubility result in [6] was “Soluble”. Besides, binding in [2] was put at a Kd of 1.01 µM. Consider `CCNC(=O)OC[C@H]1O[C@@H](n2cnc3c(N)nc(N)nc32)[C@H](O)[C@@H]1O`, for which, in data set [6], the solubility result is “Soluble”. The compound further had an equilibrium dissociation constant (Kd) in data set [2] of 2.45 µM. Regarding `CCN(CC)C(=O)OC[C@H]1O[C@@H](n2cnc3c(=O)[nH]c(N)nc32)[C@H](O)[C@@H]1O`, the solubility result in data set [6] was “Soluble”. In addition, in [2], the Kd came out at 47.2 µM.
